In patent US20210380556A1, “HETEROARYLAZOLE COMPOUND AND PEST CONTROL AGENT” (Nippon Soda Co., Ltd., priority 2018, published 2021):

What was measured:
[1] = tested on: Mythimna separata; assay: Test Example 1: efficacy on Mythimna separata (treated artificial feed); format: in vivo; settings: 1 μl of emulsion (I) (5% active ingredient) in 0.8 g artificial feed; second instar larvae; 25° C.; fifth day
Source text: (§1) 5 parts of the heteroaryl azole compound of the present invention, 93.6 parts of dimethylformamide, and 1.4 parts of polyoxyethylene alkyl aryl ether were mixed and dissolved to prepare emulsion (I) containing 5% of the active ingredient.
For a control, 98.5 parts of dimethylformamide and 1.5 parts of polyoxyethylene alkyl aryl ether were mixed and dissolved to prepare emulsion (II).
(§2) Insecticidal rate (%)=(The number of dead insects/The number of tested insects)×100
0.8 g of commercially available artificial feed (Insecta LFS, manufactured by Nosan Corp.) and 1 μl of the emulsion (I) were well mixed to obtain test feed.
A plastic test container (capacity: 1.4 ml) was packed with 0.2 g of the test feed per treatment plot. Then, two second instar larvae of Mythimna separata were inoculated to each treatment plot. A plastic lid was put on the test container so as to prevent escape of the second instar larvae of Mythimna separata. The container was placed in a thermostat chamber of 25° C. On the fifth day, the insecticidal rate and the food intake were examined. The test was conducted in duplicate.
The insecticidal rate and the food intake of a control plot were examined in the same way as in Test Example 1 except that the emulsion (I) was changed to the emulsion (II).

[2] = tested on: Plutella xylostella; assay: Test Example 3: efficacy on Plutella xylostella (cabbage leaf dip); format: in vivo; settings: foliar, 72 h, cabbage leaves dipped 30 seconds, second instar larvae, after 3 days, read-out: insecticidal rate
Experimental: as §1, §2
The emulsion (I) was diluted with water such that the concentration of the compound of the present invention was 125 ppm. Cabbage leaves were dipped in the dilution for 30 seconds. The resulting cabbage leaves were placed in a petri dish. Five second instar larvae of Plutella xylostella were released thereto. The petri dish was placed in a thermostat chamber having a temperature of 25° C. and a humidity of 60%. Life and death were determined after 3 days from the release of the insects, and the insecticidal rate was calculated. The test was conducted in duplicate.

[3] = tested on: Musca domestica; assay: Test Example 9: efficacy on Musca domestica (treated sugar cube); format: in vivo; settings: 100 ppm per g of a cube of sugar; female adults; 25° C.; after hours (number not given)
Experimental: as §2
The compound of the present invention was diluted with acetone and added dropwise at 100 ppm per g of a cube of sugar. The cube of sugar was placed in a plastic cup. Ten female adults of Musca domestica were released, and a lid was put on the plastic cup. The plastic cup was stored at 25° C. Life and death were determined after hours from the release of the insects, and the insecticidal rate was calculated. The test was conducted in duplicate.

SMILES | insecticidal rate or food intake as compared with the control plot [1] | pest or weed control at 125 ppm [2] | also measured
CCS(=O)(=O)c1cnc(-c2ncn(C)n2)nc1-c1ncc(C(F)(F)C(F)(F)C(F)(F)F)n1C [a-1] | insecticidal rate of 100% for Mythimna separata or a food intake of 10% or less | ≥ 80% | –
CCS(=O)(=O)c1cc(-c2ncccn2)cnc1-c1nnc(C(F)(F)C(F)(F)C(F)(F)C(F)(F)F)n1C [c-5] | insecticidal rate of 100% for Mythimna separata or a food intake of 10% or less | ≥ 80% | –
CCS(=O)(=O)c1cc(Br)cnc1-c1nnc(C(F)(F)C(F)(F)C(F)(F)C(F)(F)F)n1C | – | – | melting point: 74 to 76 °C
CCS(=O)(=O)c1cnc(-c2ncn(C)n2)nc1-c1ncc(C(F)(F)C(F)(F)C(F)(F)C(F)(F)F)n1C [a-2, 5-(ethylsulfonyl)-2-(1-methyl-1H-1,2,4-triazol-3-yl)-4-(1-methyl-5-(perfluorobutyl)-1H-imidazol-2-yl)pyrimidine] | insecticidal rate of 100% for Mythimna separata or a food intake of 10% or less | ≥ 80% | –
CCS(=O)(=O)c1cc(C2CC2)cnc1-c1nnc(C(F)(F)C(F)(F)C(F)(F)C(F)(F)F)n1C [c-4] | – | ≥ 80% | –
CCS(=O)(=O)c1cc(-c2ncccn2)cnc1-c1ncc(C(F)(F)C(F)(F)C(F)(F)C(F)(F)F)n1C [b-4] | insecticidal rate of 100% for Mythimna separata or a food intake of 10% or less | – | insecticidal rate [3]: ≥ 80%
CCS(=O)(=O)c1cc(-c2ncccn2)cnc1-c1ncc(C(F)(F)C(F)(F)C(F)(F)F)n1C [b-19, 2-(5-(ethylsulfonyl)-6-(1-methyl-5-(perfluoropropyl)-1H-imidazol-2-yl)pyridin-3-yl)pyrimidine] | – | ≥ 80% | –
CCS(=O)(=O)c1cnc(-c2ncccn2)nc1-c1ncc(C(F)(F)C(F)(F)C(F)(F)C(F)(F)F)n1C [a-4] | – | ≥ 80% | –
CCS(=O)(=O)c1cnc(-c2ncnn2C)nc1-c1ncc(C(F)(F)C(F)(F)C(F)(F)C(F)(F)F)n1C [a-10] | – | ≥ 80% | –
CCS(=O)(=O)c1cnc(-n2ncnc2N)nc1-c1ncc(C(F)(F)C(F)(F)C(F)(F)C(F)(F)F)n1C [a-6] | insecticidal rate of 100% for Mythimna separata or a food intake of 10% or less | ≥ 80% | –
CCS(=O)(=O)c1cnc(-n2cnc(N)n2)nc1-c1ncc(C(F)(F)C(F)(F)C(F)(F)C(F)(F)F)n1C | – | – | melting point: 219 to 221 °C
CCS(=O)(=O)c1cc(/C=N/OCC(F)(F)C(F)(F)F)cnc1-c1ncc(C(F)C(F)(F)C(F)(F)F)n1C (centres unmarked) [c-1] | insecticidal rate of 100% for Mythimna separata or a food intake of 10% or less | ≥ 80% | –
CCS(=O)(=O)c1cc(NC(=O)C2CC2)cnc1-c1ncc(C(F)(F)C(F)(F)C(F)(F)F)n1C [b-41] | insecticidal rate of 100% for Mythimna separata or a food intake of 10% or less | – | –
C=Cc1cnc(-c2ncc(C(F)C(F)(F)C(F)(F)F)n2C)c(S(=O)(=O)CC)c1 (centres unmarked) [b-39] | insecticidal rate of 100% for Mythimna separata or a food intake of 10% or less | – | –
CCS(=O)(=O)c1cc(C2CC2)cnc1-c1ncc(C(F)C(F)(C(F)(F)F)C(F)(F)F)n1C (centres unmarked) [b-52] | insecticidal rate of 100% for Mythimna separata or a food intake of 10% or less | – | –
CCS(=O)(=O)c1cc(-c2cc(F)cc(F)c2)cnc1-c1ncc(C(F)C(F)(F)C(F)(F)F)n1C (centres unmarked) [b-34] | insecticidal rate of 100% for Mythimna separata or a food intake of 10% or less | – | –
CCS(=O)(=O)c1cc(Br)cnc1-c1ncc(C(F)C(F)(F)C(F)(F)F)n1C (centres unmarked) [b-23] | insecticidal rate of 100% for Mythimna separata or a food intake of 10% or less | – | –
CCS(=O)(=O)c1cc(-n2ccc(C(F)(F)F)n2)cnc1-c1ncc(C(F)(F)C(F)(F)C(F)(F)F)n1C [b-36] | insecticidal rate of 100% for Mythimna separata or a food intake of 10% or less | – | –
CCS(=O)(=O)c1cc(-c2ccccn2)cnc1-c1ncc(C(F)C(F)(C(F)(F)F)C(F)(F)F)n1C (centres unmarked) [b-43] | insecticidal rate of 100% for Mythimna separata or a food intake of 10% or less | – | –
CCS(=O)(=O)c1cc(C2CC2)c[n+]([O-])c1-c1ncc(C(F)C(F)(C(F)(F)F)C(F)(F)F)n1C (centres unmarked) [c-8] | insecticidal rate of 100% for Mythimna separata or a food intake of 10% or less | – | –
